Counter-ions that a name gives are not always drawn. Like-named read-outs stand apart in the source and are kept apart here.
Assays:
Format in all cases: cell-based
[1] = test system: acinetobacter baumannii (ATCC 19606); assay: MIC determination, microbroth dilution; conditions: ATCC19606
Yersinia pestis = assay: microbe, parasite or virus in culture; conditions: read-out: MIC Y.p.
Moraxella catarrhalis = assay: MIC determination (Table 6)
[2] = test system: Klebsiella pneumoniae (ATCC 33495); assay: MIC determination, microbroth dilution; conditions: ATCC33495
E. coli K12 ΔtolC = assay: microbe, parasite or virus in culture; conditions: Escherichia coli, read-out: MIC E.c. Δtolc
[3] = test system: Pseudomonas aeruginosa (PA01); assay: MIC determination, microbroth dilution
[4] = test system: Neisseria gonorrhoeae (ATCC 49226); assay: Agar MIC determination (Alamar Blue); conditions: ATCC49226, agar MIC, read-out: MIC N.g.
[5] = test system: M. tuberculosis clinical isolates; assay: microbe, parasite or virus in culture; conditions: Mycobacterium tuberculosis, H37RV, read-out: MIC H37Rv
[6] = test system: Streptococcus pneumoniae clinical isolates representing several serotypes; assay: MIC determination, Streptococcus pneumoniae panel of clinical isolates (Table 7); conditions: Streptococcus pneumoniae
[7] = test system: Proteus vulgaris (ATCC 33420); assay: MIC determination, microbroth dilution; conditions: ATCC33420
[8] = test system: MRSA, Staphylococcus aureus (NRS70); assay: MIC determination, microbroth dilution; conditions: read-out: MIC MRSA
Listeria monocytogenes = assay: MIC determination (Table 6)
[9] = test system: Staphylococcus aureus (ATCC 29213); assay: MIC determination, microbroth dilution; conditions: ATCC29213; Staphylococcus aureus (ATCC 29213); read-out: MIC S.a.
[10] = test system: Bacillus subtilis (ATCC 23857); assay: MIC determination, microbroth dilution; conditions: ATCC23857; Bacillus subtilis (ATCC 23857); read-out: MIC B.s.
[11] = test system: Legionella pneumophila (ATCC 33153); assay: microbe, parasite or virus in culture; conditions: ATCC33153, 72 h, read-out: Zone of inhibition L.p.
[12] = test system: Streptococcus pneumoniae (R6); assay: MIC determination, microbroth dilution
[13] = test system: Streptococcus pyogenes (ATCC 700294); assay: MIC determination, microbroth dilution; conditions: ATCC700294; Streptococcus pyogenes (ATCC 700294); read-out: MIC S. py.
[14] = test system: Neisseria gonorrhoeae (ATCC 49226); assay: Disc diffusion assay; conditions: ATCC49226, 4 μg per disc, read-out: Zone of inhibition N.g.
[15] = test system: Enterococcus faecalis (ATCC 33186); assay: MIC determination, microbroth dilution
[16] = test system: Escherichia coli (ATCC 700926); assay: MIC determination, microbroth dilution; conditions: ATCC700926; Escherichia coli (ATCC 700926); read-out: MIC E.c.
[17] = test system: Neisseria meningitides (ATCC 13077); assay: Disc diffusion assay; conditions: ATCC13077, 4 μg per disc, read-out: Zone of inhibition N.m.
[18] = test system: Proteus mirabilis (ATCC 25933); assay: MIC determination, microbroth dilution; conditions: ATCC25933
Bacillus anthracis = assay: microbe, parasite or virus in culture; conditions: read-out: MIC B.a.
[19] = test system: Stenotrophomonas maltophilia (ATCC 13637); assay: MIC determination, microbroth dilution; conditions: ATCC13637; Stenotrophomonas maltophilia (ATCC 13637); read-out: MIC S.m.
[20] = test system: Bacillus anthracis, Sterne 34F2; assay: microbe, parasite or virus in culture; conditions: STERNE34F2, read-out: MIC B.a.
[21] = test system: Burkholderia cepacia (ATCC 25416); assay: MIC determination, microbroth dilution; conditions: Burkholderia cepacia
[22] = test system: live vaccine strain (LVS) of Francisella tularensis; assay: microbe, parasite or virus in culture; conditions: Francisella tularensis, read-out: MIC F.t.
[23] = test system: Haemophilus influenza (ATCC 49247); assay: microbe, parasite or virus in culture; conditions: ATCC49247; Haemophilus influenza; 4 μg per disc; range of at least two experiments; read-out: Zone of inhibition H.i.
[24] = BAA1407, S. pneumoniae BAA-1407, Macrolide Resistant, read-out: MIC BAA-1407
[25] = S. pneumoniae A66.1x, Drug Susceptible, read-out: MIC A66.1x
[26] = S. pneumoniae BHN97x, Drug Susceptible, read-out: MIC BHN97x
[27] = S. pneumoniae D39X, Drug Susceptible, read-out: MIC D39X
[28] = S. pneumoniae Daw7, PenG Resistant, read-out: MIC Daw7
[29] = S. pneumoniae Daw8, PenG Resistant, read-out: MIC Daw8
[30] = S. pneumoniae Daw9, PenG Resistant, read-out: MIC Daw9
[31] = S. pneumoniae Daw62, PenG Resistant, read-out: MIC Daw62
[32] = S. pneumoniae Daw64, PenG Resistant, read-out: MIC Daw64
[33] = S. pneumoniae OVA6, Macrolide Resistant, read-out: MIC OVA6
[34] = S. pneumoniae T4X, Drug Susceptible, read-out: MIC T4X
[35] = Streptococcus pneumoniae (R6), read-out: MIC S. pn.
[36] = Streptococcus pneumoniae, S. pneumoniae R6, Drug Susceptible, read-out: MIC R6
[37] = ATCC25416, read-out: MIC B.c., Burkholderia cepacia (ATCC 25416)
[38] = ATCC25416, read-out: MIC B.c., Burkholderia cepacia, Table 6

Compound	MIC [1]	MIC (Yersinia pestis)	MIC (Moraxella catarrhalis)	MIC [2]	MIC (E. coli K12 ΔtolC)	MIC [3]	MIC [4]	MIC [5]	MIC [6, 24]	MIC [6, 25]	MIC [6, 26]	MIC [6, 27]	MIC [6, 28]	MIC [6, 29]	MIC [6, 30]	MIC [6, 31]	MIC [6, 32]	MIC [6, 33]	MIC [6, 34]	MIC [7]	other results
CCc1ccc(CNC[C@]2(O)C[C@@H](C)O[C@H]3O[C@@H]4[C@@H](O)[C@H](NC)[C@H](O)[C@H](NC)[C@H]4O[C@]32O)cc1 [compound 3, 3′-(R)-3′-[(4-ethyl)benzylaminomethyl)]dihydrospectinomycin Trihydrochloride]	200 µg/mL	> 200 µg/mL	3.1 to 6.3 µg/mL	100 to 200 µg/mL	6.3 µg/mL	100 to 200 µg/mL	12.5 µg/mL	25 µg/mL	6.3 µg/mL	1.6 µg/mL	3.1 µg/mL	1.6 µg/mL	6.3 µg/mL	3.1 µg/mL	3.1 µg/mL	6.3 µg/mL	6.3 µg/mL	6.3 µg/mL	3.1 µg/mL	25 to 50 µg/mL	MIC ([8]; Staphylococcus aureus): 12.5 to 25 µg/mL; MIC (Listeria monocytogenes): 6.3 µg/mL; MIC [9]: 50 µg/mL; MIC [10]: 3.1 to 6.3 µg/mL; zone of inhibition at 4 µg/disc [11]: 28 to 40 mm; MIC [12, 35]: 1.6 to 3.1 µg/mL; MIC [12, 36]: 3.1 µg/mL; MIC [13]: 1.6 to 3.1 µg/mL; zone of inhibition at 4 µg/disc [14]: 16 mm; MIC ([15]; Enterococcus faecalis, ATCC33186, read-out: MIC E.f.): 12.5 to 25 µg/mL; MIC [16]: 12.5 to 25 µg/mL; zone of inhibition at 4 µg/disc [17]: 18 mm; MIC [18]: 100 to 200 µg/mL; MIC (Bacillus anthracis): 12.5 to 25 µg/mL; MIC [19]: 12.5 µg/mL; MIC [20]: 12.5 to 25 µg/mL; MIC [21, 37]: > 200 µg/mL; MIC [21, 38]: > 200 µg/mL; MIC [22]: 1.6 to 3.1 µg/mL; zone of inhibition at 4 µg/disc [23]: 15 to 17 mm
CCOc1ccc(CNC[C@]2(O)C[C@@H](C)O[C@H]3O[C@@H]4[C@@H](O)[C@H](NC)[C@H](O)[C@H](NC)[C@H]4O[C@]32O)cc1 [compound 4, 3′-(R)-3′-[(4-ethoxyl)benzylaminomethyl)]dihydrospectinomycin Trihydrochloride]	≥ 200 µg/mL	> 200 µg/mL	3.1 to 6.3 µg/mL	100 to 200 µg/mL	6.3 µg/mL	100 to 200 µg/mL	12.5 µg/mL	25 µg/mL	6.3 µg/mL	0.8 µg/mL	1.6 µg/mL	0.8 µg/mL	3.1 µg/mL	1.6 µg/mL	3.1 µg/mL	3.1 µg/mL	3.1 µg/mL	3.1 µg/mL	1.6 µg/mL	> 200 µg/mL	MIC ([8]; Staphylococcus aureus (NRS70)): 50 µg/mL; MIC (Listeria monocytogenes): 6.3 to 12.5 µg/mL; MIC [9]: 25 to 50 µg/mL; MIC [10]: 12.5 to 25 µg/mL; zone of inhibition at 4 µg/disc [11]: 18 to 33 mm; MIC [12, 35]: 1.6 to 3.1 µg/mL; MIC [12, 36]: 1.6 µg/mL; MIC [13]: 1.6 to 3.1 µg/mL; zone of inhibition at 4 µg/disc [14]: 15 to 17 mm; MIC ([15]; ATCC33186, Enterococcus faecalis (ATCC 33186), read-out: MIC E.f.): 12.5 to 25 µg/mL; MIC [16]: 25 to 50 µg/mL; zone of inhibition at 4 µg/disc [17]: 16 to 18 mm; MIC [18]: > 200 µg/mL; MIC (Bacillus anthracis): 100 µg/mL; MIC [19]: 25 to 50 µg/mL; MIC [20]: 100 µg/mL; MIC [21, 37]: > 200 µg/mL; MIC [21, 38]: > 200 µg/mL; MIC [22]: 0.8 to 3.1 µg/mL; zone of inhibition at 4 µg/disc [23]: 15 to 18 mm

Reference: patent US10266544B2, “Aryl substituted aminomethyl spectinomycin analogs as antibacterial agents” (ST. JUDE CHILDREN'S RESEARCH HOSPITAL, INC., priority 2013, dated 2019)
